What all share (assay type): cell-based
One data set concerns Escherichia coli. Nature of the data set: Broth dilution test (MIC, MBC). Particulars: E. coli; for MIC: broth dilution 1–2048 μg/mL. On the procedure: (§1) The antimicrobial activity of complex compounds was assessed against Bacillus subtilis, Escherichia coli, Enterococcus faecalis, Pseudomonas aeruginosa, Staphylococcus aureus, Staphylococcus epidermidis (all strains were from the collection of the Department of Molecular Biology, University of Gdańsk). All bacteria were cultured in the Luria-Bertani (LB) broth at 310.15 K in the air with shaking. LB agar plates were prepared by the supplementation of LB broth with the 1.5 % bacteriological agar. Stock solutions of complex compounds were freshly prepared in the LB broth at the concentration of 25 mg/mL. The antimicrobial activity was assessed with the broth dilution method. The LB broth supplemented with the twofold diluted amount of tested compounds (dilution range 1–2048 μg/mL) was inoculated with 10^6 cfu of bacteria cells per well of 96-well plate. Cultures were incubated at 310.15 K with shaking for 18–20 h in the air, and the bacterial growth was estimated by measuring the optical density at 600 nm with the LB broth as a background control. A minimum inhibitory concentration (MIC) was defined as the lowest concentration of the tested compound (in μg/mL) at which there was no visible growth of bacteria compared to the growth observed for the inoculated LB broth without any supplementation. […] The concentration (in μg/mL) at which no colonies were observed was defined as MBC.
Background: Broth dilution looks for growth in wells or tubes with falling amounts of substance.

The test system of data set [1] is Bacillus subtilis. The data set can be described thus: Broth dilution test (MIC, MBC). Particulars: B. subtilis, broth dilution 1–2048 μg/mL. On the procedure: as §1
For data set [2], the system named is Staphylococcus epidermidis. Nature of the data set: Broth dilution test (MIC, MBC). Particulars: S. epidermidis; for MIC: broth dilution 1–2048 μg/mL. The protocol:
as §1

The next data set concerns Pseudomonas aeruginosa. Nature of the data set: Broth dilution test (MIC, MBC). The settings on record: P. aeruginosa, broth dilution 1–2048 μg/mL. The protocol: as §1
The next data set concerns Enterococcus faecalis. Nature of the data set: Broth dilution test (MIC, MBC). The settings on record: E. faecalis; for MIC: broth dilution 1–2048 μg/mL. The protocol:
as §1

The test system of a further data set is Staphylococcus aureus. The data set can be described thus: Broth dilution test (MIC, MBC). Particulars: S. aureus; for MIC: broth dilution 1–2048 μg/mL. The protocol:
as §1

Data set [3] has as its system Human Dermal Fibroblasts adult (HDFa) cell line. Nature of the data set: Cytotoxicity assay (MTT). Particulars: for viability of the cells / cytotoxic effect / LC50 / CC50: HDFa, MTT; for viability of the cells: 500 μM; for cytotoxic effect: 1–500 μM; for CC50: read-out: LC50 (the source's name). On the procedure: The Human Dermal Fibroblasts adult (HDFa) cell line (Cascade Biologics) was used in all experiments. Unless otherwise specified, cells were grown in the Dulbecco’s modified Eagle’s medium (DMEM) supplemented with 10 % fetal bovine serum (FBS) and 1× antibiotic and antimycotic solutions (all purchased from Sigma) and incubated at 310.15 K in the humidified 5 % CO2 atmosphere.
HDFa cells were plated at 6 × 10^3 cells per well in a 96-well tissue culture plate and incubated overnight at 310.15 K to allow the attachment. The growth medium was substituted with the medium supplemented with tested complex compounds. After 24- or 48-h incubation, the cell viability was assessed using the MTT solution (3-(4,5-dimethylthiazol-2-yl)-2,5-diphenyltetrazolium bromide [Sigma]) at a concentration of 1 mg/mL prepared in the RPMI-1640 medium (Sigma). After 2-h incubation at 310.15 K, the amount of purple formazan product, dissolved in dimethylsulfoxide (DMSO) (Sigma), was quantified by measuring the absorbance at 550 nm.

Data set [4] has the same test system. The data set can be described thus: Proliferation assay (BrdU ELISA). The settings on record: 6 day-exposure, 24-h BrdU incorporation. On the procedure: The Human Dermal Fibroblasts adult (HDFa) cell line (Cascade Biologics) was used in all experiments. Unless otherwise specified, cells were grown in the Dulbecco’s modified Eagle’s medium (DMEM) supplemented with 10 % fetal bovine serum (FBS) and 1× antibiotic and antimycotic solutions (all purchased from Sigma) and incubated at 310.15 K in the humidified 5 % CO2 atmosphere. The antiproliferative activity of compounds was assessed using the Cell Proliferation ELISA, BrdU (colorimetric) kit (Roche Applied Science). Cells were seeded at a number of 10^3 cells per well of 96-well tissue culture plate and incubated overnight at 310.15 K. The growth medium was substituted with the medium supplemented with tested compounds, and after 5 days of incubation, labelling with 5-bromo-2′-deoxyuridine (BrdU) was performed for another 24 h. Following steps were performed according to the manufacturer’s protocol.
(Incorporation of labelled thymidine or its analogues reports DNA synthesis.)

Data set [5] deals with Bacillus subtilis. The data set can be described thus: Disc diffusion test. Particulars: B. subtilis. The protocol: The antimicrobial activity of complex compounds was assessed against Bacillus subtilis, Escherichia coli, Enterococcus faecalis, Pseudomonas aeruginosa, Staphylococcus aureus, Staphylococcus epidermidis (all strains were from the collection of the Department of Molecular Biology, University of Gdańsk). All bacteria were cultured in the Luria-Bertani (LB) broth at 310.15 K in the air with shaking. LB agar plates were prepared by the supplementation of LB broth with the 1.5 % bacteriological agar. Stock solutions of complex compounds were freshly prepared in the LB broth at the concentration of 25 mg/mL. Aliquots of 0.05 mL of bacterial culture at the optical density at 600 nm of 0.1 (inoculum 5 × 10^6 cells per plate) were spread on LB agar plates. Sterile filter paper discs (of 6 mm diameter) were impregnated with solutions of complex compounds prepared in the deionized water at the following amounts: 0.1, 0.2, 0.5 and 1.0 mg per disc and placed on agar plates. After an overnight incubation at 310.15 K, zones of bacterial growth inhibition were measured. Neomycin at the amount of 0.1 mg/disc was used as a control.
In general terms: A growth-free zone around the sample is the usual read-out of agar diffusion tests.

Like-named read-outs stand apart in the source and are kept apart here.

Usually MBC stands for the lowest tested concentration that kills the bacteria rather than only halting them. By MIC is commonly meant the least concentration at which growth counts as inhibited. By IC25 is commonly meant the point of the concentration-response curve where the effect stands at 25%. What is called IC50 is the midpoint of a concentration-inhibition curve. Higher therefore signals weaker potency. As a reminder, the IC75 is the concentration needed for an effect of 75%. `O.O.O.O=C(O)COCC(=O)O.[Co]` [Co(ODA), [Co(ODA)(H2O)2]·H2O]: the MBC stood at 1024 µg/mL with Escherichia coli, 2048 µg/mL in data set [2] and 512 µg/mL with Staphylococcus aureus. The “bacteriostatic or bactericidal activity” value (with Escherichia coli; in data set [2]; with Staphylococcus aureus) was “bactericidal activity” throughout. The MIC was determined as 512 µg/mL against Escherichia coli; 256 µg/mL against Bacillus subtilis [1]; 256 µg/mL in [2]; 256 µg/mL against Pseudomonas aeruginosa; 256 µg/mL with Enterococcus faecalis; 256 µg/mL in the data set on Staphylococcus aureus. For the same compound, in data set [3], the LC25 entry is “Immeasurable”. In addition, the LC75 result in [3] is on record as “Immeasurable”. Further, the “viability of the cells” value in data set [3] (24 h) is recorded as “no less than 95%”; in [3] (48 h), “about 90%”. In addition, in data set [3] (24 h), the cytotoxic effect entry was “no significant cytotoxic effects”. Further, the LC50 result in data set [3] (24-h exposure time) and in data set [3] (48-h exposure time) was “Immeasurable” in each case. In data set [4], this compound yielded an IC25 of 128.90 µM. In addition, the values for the IC50 in [4] and in data set [4] (listed as Co(II) complex) were 175 µM and approximately 200 µM, respectively. Besides, the IC75 in data set [4] was more than 1000 µM. Further, the “Zone of growth inhibition” value turned out to be 9 mm with Bacillus subtilis [5] (500 μg/disc) and 11 mm in the data set on Bacillus subtilis [5] (1000 μg/disc).

In the case of `O.O.O.O.O.O.O.O.O.O=C([O-])COCC(=O)[O-].O=C([O-])COCC(=O)[O-].[Ni+2].[Ni+2]` [Ni(ODA), [Ni(ODA)(H2O)3]·1.5H2O], the MIC came out at 1024 µg/mL in the data set with Escherichia coli; 512 µg/mL with Bacillus subtilis [1]; 512 µg/mL in [2]; 1024 µg/mL with Pseudomonas aeruginosa; 1024 µg/mL in the data set on Enterococcus faecalis; 1024 µg/mL in the data set with Staphylococcus aureus. In data set [2], this compound returned an MBC of 2048 µg/mL. Besides, the “bacteriostatic or bactericidal activity” value in data set [2] was “bactericidal activity”. The “viability of the cells” value is “no less than 95%” in data set [3] (24 h) and approximately 75% in data set [3] (48 h). Also, the cytotoxic effect entry in data set [3] (24 h) is “no significant cytotoxic effects”. Moreover, the LC50 entry in data set [3] (24-h exposure time) was “Immeasurable”. The CC50 in [3] (48-h exposure time) stood at 1310 µM. The same compound showed an IC25 in [4] of 148.65 µM. In addition, the results for the IC50 in data set [4] and in data set [4] (listed as Ni(II) complex) were 220 µM and approximately 200 µM, respectively. The same compound returned an IC75 in data set [4] of more than 1000 µM. For the same compound, the “Zone of growth inhibition” value in the data set with Bacillus subtilis [5] (500 μg/disc) and with Bacillus subtilis [5] (1000 μg/disc) was 8 mm throughout.

`O.O.O=C([O-])COCC(=O)[O-].[O]=[V+2]` [VO(ODA), [VO(ODA)(H2O)2]]: the MIC with Escherichia coli came to 2048 µg/mL; in the data set on Bacillus subtilis [1], 2048 µg/mL; in data set [2] it was 2048 µg/mL; against Pseudomonas aeruginosa, 1024 µg/mL; in the data set on Enterococcus faecalis, 1024 µg/mL; in the data set on Staphylococcus aureus, 1024 µg/mL. The MBC in data set [2] worked out at 2048 µg/mL; against Enterococcus faecalis it was 1024 µg/mL; with Staphylococcus aureus, 2048 µg/mL. In addition, the “bacteriostatic or bactericidal activity” value (in [2]; with Enterococcus faecalis; with Staphylococcus aureus) was “bactericidal activity” throughout. For the same compound, the cytotoxic effect entry in data set [3] (24 h) is listed as “exhibits the cytotoxic effect”. Also, the CC50 was determined as 296 µM in data set [3] (24-h exposure time) and 87.5 µM in data set [3] (48-h exposure time). Also, the IC25 in data set [4] came out at 23.41 µM. The IC50 in data set [4] came to 24.9 µM; in data set [4] (listed as oxovanadium(IV) complex), 25 µM. For the same compound, the IC75 in [4] turned out to be 26.42 µM. Further, the “Zone of growth inhibition” value in the data set on Bacillus subtilis [5] (1000 μg/disc) was 7 mm.

(Values after publication PMC4352194, “Physicochemical and Biological Properties of Oxovanadium(IV), Cobalt(II) and Nickel(II) Complexes with Oxydiacetate Anions” (Biological Trace Element Research, 2014).)
